Reference: US20100143899A1, “METHODS AND PRODUCTS FOR DIAGNOSING CANCER” (University of Vermont and State Agricultural College, priority 2005, published 2010)
Entries after “also recorded” stand apart in the source; their conditions may differ.

Tests used:
[1] = test system: six human melanoma cell lines (MelJuSo, UACC 903, c8161, Neo-6 c8161, WM1205 and WM35); assay: Re-expression microarray analysis after 5AzadC treatment; assay type: cell-based; conditions: 5 μM 5AzadC, 48 hours, relative to untreated cells; in at least one of the six melanoma cell lines; HG U133A microarray
Experimental: (§1) 5AzadC treatment and microarray analysis. Cells were grown to 50% confluence in 100 mm culture plates and treated with 5 μM 5AzadC (Sigma; St. Louis, Mo.) dissolved in growth media. Fresh 5AzadC media was added every 24 hours until the end of the assay (96 hours). RNA and DNA were isolated from a batch of 5AzadC treated cells every 24 hours starting with 0 hour controls. RNA was isolated following 0 hr and 48 hr 5AzadC treatment of six melanoma cell lines (MelJuSo, UACC 903, c8161, Neo-6 c8161, WM1205 and WM35) and used for the re-expression microarray analysis. Total RNA was isolated using the RNeasy kit (Qiagen; Valencia, Calif.) according to manufacturer's instructions. Preparation of double stranded cDNA and in-vitro transcription (IVT) was as per manufacturer's recommendations. Biotinylated cRNA obtained from IVT were fragmented and hybridized on Human Genome U133A array as per manufacturer's recommendations (Affymetrix; Santa Clara, Calif.). […] Probe set signal calls with p values greater than 0.01 were not further evaluated. […]
In order to determine DNA methylation-related expression changes, six human melanoma cell lines were treated with 5AzadC and compared for expression changes at 48 hours post-treatment relative to untreated melanoma cell lines. […] No DNA methylation was detected in primary human melanocytes at any of the loci. […]

[2] = test system: SYK mRNA in melanoma cell lines; assay: Quantitative RT-PCR of SYK expression after 5AzadC treatment; assay type: cell-based, human; conditions: in a subset (4/8) of cell lines with SYK methylation
Experimental: as §1, with “instructions.” for “instructions. Preparation of double stranded cDNA and in-vitro transcription (IVT) was as per manufacturer's recommendations. Biotinylated cRNA obtained from IVT were fragmented and hybridized on Human Genome U133A array as per manufacturer's recommendations (Affymetrix; Santa Clara, Calif.).”
(§2) Bisulfite sequencing and quantitative PCR. […] Particular CpG sites were scored as positive if the C:T peak ratio exceeded 1:3 (at least 25% methylation). Real time quantitative PCR was performed for validation of microarray expression data of selected candidate genes by using 2.5 μl of 100 fold diluted cDNA template and 0.2 μM gene specific primers in a 25 μl PCR reaction using JumpStart SYBR green kit (Sigma) according to manufacturer's instructions in an ABI 7700. The reactions were performed in duplicate, CT values obtained were normalized to GAPDH levels and quantification was performed using the comparative CT method.

[3] = test system: HOXB13 mRNA in melanoma cell lines; assay: Quantitative RT-PCR of HOXB13 expression after 5AzadC treatment; assay type: cell-based, human; conditions: in 2 out of 3 cell lines with promoter region methylation
Experimental: as §1, with “instructions.” for “instructions. Preparation of double stranded cDNA and in-vitro transcription (IVT) was as per manufacturer's recommendations. Biotinylated cRNA obtained from IVT were fragmented and hybridized on Human Genome U133A array as per manufacturer's recommendations (Affymetrix; Santa Clara, Calif.).”
as §2

[4] = test system: methylated candidate genes in melanoma cell lines; assay: Quantitative RT-PCR of candidate genes after 5AzadC treatment; assay type: cell-based, human; conditions: expression relative to melanocytes
Experimental: as §1, with “instructions.” for “instructions. Preparation of double stranded cDNA and in-vitro transcription (IVT) was as per manufacturer's recommendations. Biotinylated cRNA obtained from IVT were fragmented and hybridized on Human Genome U133A array as per manufacturer's recommendations (Affymetrix; Santa Clara, Calif.).”
as §2

[5] = test system: QPCT promoter region in MelJuSo melanoma cell line; assay: Bisulfite sequencing of promoter region after 5AzadC treatment; assay type: cell-based, human; conditions: 48 h, bisulfite sequencing (FIG. 5)
Experimental: FIG. 5A represents the original sequence for comparison (SEQ ID NO:58).
Bisulfite sequencing and quantitative PCR. DNA was isolated from cells and tissues using standard phenol-chloroform extraction. Bisulfite modification was performed as previously described (24) on DNA from melanocytes, melanoma cell lines prior to and after 48 hr treatment with 5AzadC and DNA from melanoma tissues. PCR reactions were carried out using 50 ng of bisulfite modified DNA in a 30 μl volume with a 0.2 μM primer concentration (primer sequences are provided in the Table 2 with the amplified regions of selected genes provided in Table 3). PCR products were purified using the Qiaquick Gel Extraction kit (Qiagen) and directly sequenced on the ABI 3100-Avant automated DNA sequencer. Particular CpG sites were scored as positive if the C:T peak ratio exceeded 1:3 (at least 25% methylation). Real time quantitative PCR was performed for validation of microarray expression data of selected candidate genes by using 2.5 μl of 100 fold diluted cDNA template and 0.2 μM gene specific primers in a 25 μl PCR reaction using JumpStart SYBR green kit (Sigma) according to manufacturer's instructions in an ABI 7700. The reactions were performed in duplicate, CT values obtained were normalized to GAPDH levels and quantification was performed using the comparative CT method.

Structure (SMILES): Nc1ncn([C@H]2C[C@H](O)[C@@H](CO)O2)c(=O)n1 [5AzadC, 5-Aza-2′-deoxycytidine]
- Increase of expression of 150 genes upon 5AzadC treatment [1]: greater than 4 fold
- Upregulation of SYK [2]: > 2 fold
- Re-expression of HOXB13 [3]: Re-expression of HOXB13 occurred
- Reversal of loss of expression of promoter-methylated candidate genes [4]: could be reversed in the majority of cases
- Demethylation of promoter region [5]: Demethylation was also induced; also recorded: demethylation of the promoter region
